In brackets after ≈: the same amount, converted by molar mass.
How the values were obtained:
Assay in all cases: Agar dilution MIC (CLSI)
[1] = tested on: KP ATCC 700603; format: cell-based, K. pneumoniae; conditions: Klebsiella pneumoniae, ATCC700603, Mueller Hinton Agar
Experimental: (§1) The biological activity of representative compounds according to the invention against various bacterial strains was investigated. In a typical study, overnight grown bacterial cultures were diluted appropriately and inoculated on the agar media containing doubling dilutions of the test compounds. Observations for growth or no growth was performed after 16-20 hours of incubation at 35±2° C. in the ambient air. The overall procedure was performed as per Clinical and Laboratory Standards Institute (CLSI) recommendations, (Clinical and Laboratory Standards Institute (CLSI), Performance Standards for Antimicrobial Susceptibility Testing, 20th Informational Supplement, M07-A9, Volume 32, No. 2, 2012). Molten Mueller Hinton Agar (MHA) (BD, USA) containing serial dilutions of each antibacterial agent were poured on to the plates and allowed to solidify. Appropriate suspensions from the freshly grown cultures were prepared in normal saline so that about 10^4 CFU/spot of the organism was delivered on to the drug containing agar plates using automated multipoint inoculator (Mast, UK). The plates were incubated in Biochemical oxygen demand (BOD) incubator at 37° C. for 18 hours and then examined for growth.
(§2) The Table 2 depicts the antibacterial activity profile of compounds according to present invention against various multidrug resistant bacterial strains.

[2] = tested on: E. coli 13351; format: cell-based; conditions: Escherichia coli, Mueller Hinton Agar
Experimental: as §1, §2

[3] = tested on: E. coli 13352; format: cell-based; conditions: Escherichia coli, Mueller Hinton Agar
Experimental: as §1, §2

[4] = tested on: E. coli 13353; format: cell-based; conditions: Escherichia coli, Mueller Hinton Agar
Experimental: as §1, §2

[5] = tested on: E. coli 7 MP; format: cell-based; conditions: Escherichia coli, Mueller Hinton Agar
Experimental: as §1, §2

[6] = tested on: E. coli M 138; format: cell-based; conditions: Escherichia coli, M138, Mueller Hinton Agar
Experimental: as §1, §2

[7] = tested on: E. coli M 36; format: cell-based; conditions: Escherichia coli, M36, Mueller Hinton Agar
Experimental: as §1, §2

[8] = tested on: E. coli M 49; format: cell-based; conditions: Escherichia coli, M49, Mueller Hinton Agar
Experimental: as §1, §2

[9] = tested on: E. coli M 50; format: cell-based; conditions: Escherichia coli, M50, Mueller Hinton Agar
Experimental: as §1, §2

[10] = tested on: E. coli S 18; format: cell-based; conditions: Escherichia coli, S18, Mueller Hinton Agar
Experimental: as §1, §2

[11] = tested on: K. pneumoniae H 521; format: cell-based; conditions: Klebsiella pneumoniae, H521, Mueller Hinton Agar
Experimental: as §1, §2

[12] = tested on: K. pneumoniae H 522; format: cell-based; conditions: Klebsiella pneumoniae, H522, Mueller Hinton Agar
Experimental: as §1, §2

[13] = tested on: K. pneumoniae H 523; format: cell-based; conditions: Klebsiella pneumoniae, H523, Mueller Hinton Agar
Experimental: as §1, §2

[14] = tested on: K. pneumoniae H 525; format: cell-based; conditions: Klebsiella pneumoniae, H525, Mueller Hinton Agar
Experimental: as §1, §2

[15] = tested on: E. coli H 483; format: cell-based; conditions: Escherichia coli, H483, Mueller Hinton Agar
Experimental: as §1, §2

Structure (SMILES) | MIC [1] | MIC [2] | MIC [3] | MIC [4] | MIC [5] | MIC [6] | MIC [7] | MIC [8] | MIC [9] | MIC [10] | MIC [11] | MIC [12] | MIC [13] | MIC [14] | MIC [15]
O=C(NOC[C@@H]1CCCN1)[C@@H]1CC[C@@H]2CN1C(=O)N2OC(F)(F)C(=O)O [Example 1] | > 32 µg/mL | 2 µg/mL (≈ 5.29 µM) | 2 µg/mL (≈ 5.29 µM) | 2 µg/mL (≈ 5.29 µM) | 4 µg/mL (≈ 10.6 µM) | 2 µg/mL (≈ 5.29 µM) | 2 µg/mL (≈ 5.29 µM) | 8 µg/mL (≈ 21.1 µM) | 2 µg/mL (≈ 5.29 µM) | 2 µg/mL (≈ 5.29 µM) | 4 µg/mL (≈ 10.6 µM) | 2 µg/mL (≈ 5.29 µM) | 2 µg/mL (≈ 5.29 µM) | 2 µg/mL (≈ 5.29 µM) | –
O=C(NOC[C@H]1CCCN1)[C@@H]1CC[C@@H]2CN1C(=O)N2OC(F)(F)C(=O)O [Example 2] | > 32 µg/mL | 1 µg/mL (≈ 2.64 µM) | 1 µg/mL (≈ 2.64 µM) | 0.5 µg/mL (≈ 1.32 µM) | 2 µg/mL (≈ 5.29 µM) | 1 µg/mL (≈ 2.64 µM) | 0.5 µg/mL (≈ 1.32 µM) | 2 µg/mL (≈ 5.29 µM) | 1 µg/mL (≈ 2.64 µM) | – | 1 µg/mL (≈ 2.64 µM) | 1 µg/mL (≈ 2.64 µM) | 1 µg/mL (≈ 2.64 µM) | 1 µg/mL (≈ 2.64 µM) | –
O=C(NOC1CCNC1)[C@@H]1CC[C@@H]2CN1C(=O)N2OC(F)(F)C(=O)O (some centres unmarked) [Example 3] | > 32 µg/mL | 4 µg/mL (≈ 11 µM) | 4 µg/mL (≈ 11 µM) | 4 µg/mL (≈ 11 µM) | 8 µg/mL (≈ 22 µM) | 4 µg/mL (≈ 11 µM) | 4 µg/mL (≈ 11 µM) | 8 µg/mL (≈ 22 µM) | 4 µg/mL (≈ 11 µM) | 16 µg/mL (≈ 43.9 µM) | 4 µg/mL (≈ 11 µM) | 4 µg/mL (≈ 11 µM) | 4 µg/mL (≈ 11 µM) | 4 µg/mL (≈ 11 µM) | > 32 µg/mL
O=C(NOC[C@H]1CCCCN1)[C@@H]1CC[C@@H]2CN1C(=O)N2OC(F)(F)C(=O)O [Example 4] | > 32 µg/mL | – | 1 µg/mL (≈ 2.55 µM) | 1 µg/mL (≈ 2.55 µM) | 2 µg/mL (≈ 5.1 µM) | 2 µg/mL (≈ 5.1 µM) | 1 µg/mL (≈ 2.55 µM) | 4 µg/mL (≈ 10.2 µM) | 2 µg/mL (≈ 5.1 µM) | 2 µg/mL (≈ 5.1 µM) | 2 µg/mL (≈ 5.1 µM) | 1 µg/mL (≈ 2.55 µM) | 1 µg/mL (≈ 2.55 µM) | 1 µg/mL (≈ 2.55 µM) | > 32 µg/mL
O=C(NOC[C@@H]1CCCCN1)[C@@H]1CC[C@@H]2CN1C(=O)N2OC(F)(F)C(=O)O [Example 5] | > 32 µg/mL | 8 µg/mL (≈ 20.4 µM) | 4 µg/mL (≈ 10.2 µM) | 4 µg/mL (≈ 10.2 µM) | 8 µg/mL (≈ 20.4 µM) | 4 µg/mL (≈ 10.2 µM) | 4 µg/mL (≈ 10.2 µM) | 8 µg/mL (≈ 20.4 µM) | 4 µg/mL (≈ 10.2 µM) | 4 µg/mL (≈ 10.2 µM) | 4 µg/mL (≈ 10.2 µM) | 4 µg/mL (≈ 10.2 µM) | 4 µg/mL (≈ 10.2 µM) | 4 µg/mL (≈ 10.2 µM) | –
O=C(NOC[C@H]1CCCCCN1)[C@@H]1CC[C@@H]2CN1C(=O)N2OC(F)(F)C(=O)O [Example 6] | > 32 µg/mL | 2 µg/mL (≈ 4.92 µM) | 2 µg/mL (≈ 4.92 µM) | 1 µg/mL (≈ 2.46 µM) | 4 µg/mL (≈ 9.84 µM) | 2 µg/mL (≈ 4.92 µM) | 1 µg/mL (≈ 2.46 µM) | 8 µg/mL (≈ 19.7 µM) | 2 µg/mL (≈ 4.92 µM) | 2 µg/mL (≈ 4.92 µM) | 2 µg/mL (≈ 4.92 µM) | 2 µg/mL (≈ 4.92 µM) | 2 µg/mL (≈ 4.92 µM) | 1 µg/mL (≈ 2.46 µM) | > 32 µg/mL
O=C(NOC[C@@H]1CCCCCN1)[C@@H]1CC[C@@H]2CN1C(=O)N2OC(F)(F)C(=O)O [Example 7] | > 32 µg/mL | 2 µg/mL (≈ 4.92 µM) | 2 µg/mL (≈ 4.92 µM) | 4 µg/mL (≈ 9.84 µM) | 4 µg/mL (≈ 9.84 µM) | 4 µg/mL (≈ 9.84 µM) | 4 µg/mL (≈ 9.84 µM) | 2 µg/mL (≈ 4.92 µM) | 2 µg/mL (≈ 4.92 µM) | – | 2 µg/mL (≈ 4.92 µM) | 2 µg/mL (≈ 4.92 µM) | 2 µg/mL (≈ 4.92 µM) | 2 µg/mL (≈ 4.92 µM) | –
NCCONC(=O)[C@@H]1CC[C@@H]2CN1C(=O)N2OC(F)(F)C(=O)O [Example 8] | > 32 µg/mL | 4 µg/mL (≈ 11.8 µM) | 4 µg/mL (≈ 11.8 µM) | 4 µg/mL (≈ 11.8 µM) | 8 µg/mL (≈ 23.6 µM) | 4 µg/mL (≈ 11.8 µM) | 2 µg/mL (≈ 5.91 µM) | 4 µg/mL (≈ 11.8 µM) | 4 µg/mL (≈ 11.8 µM) | 4 µg/mL (≈ 11.8 µM) | 4 µg/mL (≈ 11.8 µM) | 4 µg/mL (≈ 11.8 µM) | 4 µg/mL (≈ 11.8 µM) | 4 µg/mL (≈ 11.8 µM) | > 32 µg/mL

— patent US20190077802A1, “DIFLUORO-(2-SUBSTITUTED CARBAMOYL-1,6-DIAZA-BICYCLO [3.2.1] OCT-6-YLOXY) ACETIC ACID COMPOUNDS AND THEIR USE IN TREATMENT OF BACTERIAL INFECTIONS” (WOCKHARDT LIMITED, priority 2015, published 2019)
